The record followed here is patent US20260042764A1, “COMPOSITIONS AND METHODS FOR INHIBITION OF KRAS” (TheRas, Inc., priority 2022, published 2026).

For one experiment, the system named is GP2d cells (KRAS G12D). Briefly: Cell-based pERK HTRF assay in GP2d cell (Biological Example 2). The settings on record: GP2d, GP2d (KRAS G12D) cells, pERK HTRF. The method, boiled down:
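HTRF read-out of pERK (excitation 320 nm, emission 615 nm) after lysates sat 4–24 h at room temperature with Eu cryptate and d2 antibodies.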

The target in experiment [1] is T1, Avi-KRAS G12R (1-169) GppNHp/RAF1 RBD-3xFLAG (52-151) (Homo sapiens, UniProt P01116, G12R).
T1 construct: Avi-KRAS G12R (1-169)
Kind of experiment: Raf1-KRAS G12R-GppNHP disruption HTRF assay (Biological Example 1). It counts as binding. The method, boiled down: (§1)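 Measured with a KRAS/RAF1 HTRF assay at pH 7.5 in 10% DMSO, with two 1 h room-temperature incubations with shaking.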
(Time-resolved FRET reads energy transfer from a long-lived donor to a nearby acceptor.)

In experiment [2] the target is T2, Avi-KRAS G12V (1-169) GppNHp/RAF1 RBD-3xFLAG (52-151) (Homo sapiens, UniProt P01116, G12V).
T2 construct: Avi-KRAS G12V (1-169)
Kind of experiment: Raf1-KRAS G12V-GppNHP disruption HTRF assay (Biological Example 1). The format is binding. The method, boiled down: as §1

The next experiment has as its system SW620 cells (KRAS G12V). Kind of experiment: Cell-based pERK HTRF assay in SW620 cell (Biological Example 4). The settings on record: Homo sapiens, SW-620, SW620 (KRAS G12V) cells, pERK HTRF. The method, boiled down:
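SW620 cells were treated for 4 h with compound in a 9-point half-log series from 1 μM top (0.25% DMSO), then lysed. Phospho-ERK was detected by HTRF with d2 and Eu cryptate antibodies after 4–24 h at room temperature, read at 615 nm emission.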

Experiment [3] has as its target T3, Avi-KRAS WT (1-169) GppNHp/RAF1 RBD-3xFLAG (52-151) (Homo sapiens, UniProt P01116).
T3 construct: Avi-KRAS WT (1-169)
Kind of experiment: Raf1-KRAS WT-GppNHP disruption HTRF assay (Biological Example 1). It counts as binding. The method, boiled down: as §1

The target of experiment [4] is T4, Avi-KRAS G12D (1-169) GppNHp/RAF1 RBD-3xFLAG (52-151) (Homo sapiens, UniProt P01116, G12D).
T4 construct: Avi-KRAS G12D (1-169)
Kind of experiment: Raf1-KRAS G12D-GppNHP disruption HTRF assay (Biological Example 1). It counts as binding. The method, boiled down:
as §1

Where [5] appears, read: KRAS G12R, GppNHp-loaded, class symbols.
Where [6] appears, read: KRAS G12V, GppNHp-loaded, class symbols.
Where [7] appears, read: KRAS WT, GppNHp-loaded, class symbols.
Where [8] appears, read: KRAS G12D, GppNHp-loaded, class symbols.
[9] abbreviates: KRAS G12R, GppNHp-loaded, Table 11.
The mark [10] stands for this setting: KRAS G12V, GppNHp-loaded, Table 11.
Where [11] appears, read: KRAS WT, GppNHp-loaded, Table 11.
Where [12] appears, read: KRAS G12D, GppNHp-loaded, Table 11.

T4 sequence (P01116 1-169 isoform P01116-2 G12D): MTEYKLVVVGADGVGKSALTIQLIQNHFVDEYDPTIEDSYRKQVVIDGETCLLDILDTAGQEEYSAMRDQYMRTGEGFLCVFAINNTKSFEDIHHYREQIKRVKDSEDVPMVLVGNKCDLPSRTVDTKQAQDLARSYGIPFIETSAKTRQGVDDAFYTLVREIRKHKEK
T1 sequence (P01116 1-169 isoform P01116-2 G12R): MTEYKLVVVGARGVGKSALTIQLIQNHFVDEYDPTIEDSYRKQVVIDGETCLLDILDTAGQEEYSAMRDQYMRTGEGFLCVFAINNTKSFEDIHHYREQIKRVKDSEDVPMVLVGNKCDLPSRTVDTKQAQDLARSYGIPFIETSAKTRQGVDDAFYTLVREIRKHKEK
T3 sequence (P01116 1-169 isoform P01116-2): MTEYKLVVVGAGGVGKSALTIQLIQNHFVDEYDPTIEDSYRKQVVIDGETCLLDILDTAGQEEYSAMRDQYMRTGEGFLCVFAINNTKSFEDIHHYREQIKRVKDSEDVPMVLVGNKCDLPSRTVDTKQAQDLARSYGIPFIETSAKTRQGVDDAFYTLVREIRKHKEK
T2 sequence (P01116 1-169 isoform P01116-2 G12V): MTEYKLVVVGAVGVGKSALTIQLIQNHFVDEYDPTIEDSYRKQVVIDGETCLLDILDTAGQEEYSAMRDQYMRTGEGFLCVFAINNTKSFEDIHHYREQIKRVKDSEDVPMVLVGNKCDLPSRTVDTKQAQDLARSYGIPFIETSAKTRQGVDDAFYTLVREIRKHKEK

Usually IC50 stands for the midpoint of a concentration-inhibition curve. Read a high IC50 as weaker potency in that assay. On to `C[C@@H]1[C@H](N(C)c2nc(OC[C@@]34CCCN3C[C@H](F)C4)nc3c(F)c(-c4ccc(F)c5sc(N)c(C#N)c45)c(Cl)cc23)CCN1C(=O)C1(F)CC1` [Compound 422], for which the IC50 with GP2d cells (KRAS G12D) lay within 100 to 1000 nM; in experiment [1] (KRAS G12R-GppNHp/RAF1 RBD HTRF), 1000 to 10000 nM; in experiment [2] (KRAS G12V-GppNHp/RAF1 RBD HTRF), 1000 to 10000 nM; in the experiment on SW620 cells (KRAS G12V), 100 to 1000 nM; in experiment [3] (KRAS WT-GppNHp/RAF1 RBD HTRF), 1000 to 10000 nM; in experiment [4] (KRAS G12D-GppNHp/RAF1 RBD HTRF), 1000 to 10000 nM.
For the compound `N#Cc1c(N)sc2c(F)ccc(-c3c(C(F)(F)F)cc4c(N5[C@@H]6CO[C@H]7C6OC[C@H]75)nc(OC[C@@]56CCCN5C[C@H](F)C6)nc4c3F)c12` [Compound 382], the IC50 in the experiment on GP2d cells (KRAS G12D) is less than 100 nM; in experiment [1] (KRAS G12R-GppNHp/RAF1 RBD HTRF) it was 1000 to 10000 nM; in experiment [2] (KRAS G12V-GppNHp/RAF1 RBD HTRF), 1000 to 10000 nM; in the experiment with SW620 cells (KRAS G12V), less than 100 nM; in experiment [3] (KRAS WT-GppNHp/RAF1 RBD HTRF) it was 100 to 1000 nM; in experiment [4] (KRAS G12D-GppNHp/RAF1 RBD HTRF), 100 to 1000 nM.
Take `CCC(=O)N1CC[C@](C)(N(C)c2nc(OC[C@@]34CCCN3C[C@H](F)C4)nc3c(F)c(-c4ccc(F)c5sc(N)c(C#N)c45)c(C(F)(F)F)cc23)C1` [Compound 506]: the half-inhibitory concentration (IC50) in the experiment with GP2d cells (KRAS G12D) was less than 100 nM; in experiment [1] (KRAS G12R-GppNHp/RAF1 RBD HTRF), 1000 to 10000 nM; in experiment [2] (KRAS G12V-GppNHp/RAF1 RBD HTRF) it was 1000 to 10000 nM; with SW620 cells (KRAS G12V), less than 100 nM; in experiment [3] (KRAS WT-GppNHp/RAF1 RBD HTRF), 1000 to 10000 nM; in experiment [4] (KRAS G12D-GppNHp/RAF1 RBD HTRF), 100 to 1000 nM.
Turning to `CCN(c1nc(OC[C@@]23CCCN2C[C@H](F)C3)nc2c(F)c(-c3ccc(F)c4sc(N)c(C#N)c34)c(C(F)(F)F)cc12)[C@H]1C[C@@H](C)N(C(=O)c2ccon2)C1` (atropisomer, axis not shown) [Compound 783], the IC50 is less than 100 nM in the experiment on GP2d cells (KRAS G12D) (class symbols); 100 to 1000 nM in experiment [1] (setting [5]); 100 to 1000 nM in experiment [2] (setting [6]); less than 100 nM in the experiment on SW620 cells (KRAS G12V) (class symbols); 100 to 1000 nM in experiment [3] (setting [7]); 100 to 1000 nM in experiment [4] (setting [8]).
For `CC(=O)N(C)CCN(C)c1nc(OC[C@@]23CCCN2C[C@H](F)C3)nc2c(F)c(-c3ccc(F)c4sc(N)c(C#N)c34)c(C(F)(F)F)cc12` [Compound 255], the IC50 in the experiment with GP2d cells (KRAS G12D) was less than 100 nM; in experiment [1] (setting [9]) it was 100 to 1000 nM; in experiment [2] (setting [10]), 100 to 1000 nM; in the experiment on SW620 cells (KRAS G12V), less than 100 nM; in experiment [3] (setting [11]), 100 to 1000 nM; in experiment [4] (setting [12]), 100 to 1000 nM.
`CCN(c1nc(OC[C@@]23CCCN2C[C@H](F)C3)nc2c(F)c(-c3ccc(F)c4sc(N)c(C#N)c34)c(C(F)(F)F)cc12)[C@H]1CCN(C(=O)c2cnn(C)c2)C1` (atropisomer, axis not shown) [Compound 748]: the half-maximal inhibitory concentration (IC50) (with GP2d cells (KRAS G12D) (class symbols); in experiment [1] (setting [5]); in experiment [2] (setting [6]); in the experiment on SW620 cells (KRAS G12V) (class symbols); in experiment [3] (setting [7]); in experiment [4] (setting [8])) was less than 100 nM each time.
On to `N#Cc1c(N)sc2c(F)ccc(-c3c(C(F)(F)F)cc4c(N5CC(O)C5)nc(OC[C@@]56CCCN5C[C@H](F)C6)nc4c3F)c12` [Compound 215], for which the IC50 with GP2d cells (KRAS G12D) was less than 100 nM; in experiment [1] (setting [9]) it was 100 to 1000 nM; in experiment [2] (setting [10]), 100 to 1000 nM; in the experiment with SW620 cells (KRAS G12V), 100 to 1000 nM; in experiment [3] (setting [11]), 100 to 1000 nM; in experiment [4] (setting [12]) it was 100 to 1000 nM.
Consider `C[C@H]1C[C@H](N(c2nc(OC[C@@]34CCCN3C[C@H](F)C4)nc3c(F)c(-c4ccc(F)c5sc(N)c(C#N)c45)c(C(F)(F)F)cc23)C2CC2)CN1C(=O)C1CC1` [Compound 474], for which the IC50 is less than 100 nM with GP2d cells (KRAS G12D); 100 to 1000 nM in experiment [1] (KRAS G12R-GppNHp/RAF1 RBD HTRF); 100 to 1000 nM in experiment [2] (KRAS G12V-GppNHp/RAF1 RBD HTRF); less than 100 nM in the experiment on SW620 cells (KRAS G12V); 100 to 1000 nM in experiment [3] (KRAS WT-GppNHp/RAF1 RBD HTRF); 100 to 1000 nM in experiment [4] (KRAS G12D-GppNHp/RAF1 RBD HTRF).
